From US20140107109A1, “AMINO-DIHYDROTHIAZINE AND AMINO-DIOXIDO DIHYDROTHIAZINE COMPOUNDS AS BETA-SECRETASE ANTAGONISTS AND METHODS OF USE” (Amgen Inc., priority 2012, published 2014)
pIC50: −log10 of the molar value. Like-named read-outs stand apart in the source and are kept apart here.

Legend:
[1] = biological target: Beta Secretase enzyme (BACE1) (Homo sapiens, UniProt P56817); assay: In vitro enzymatic BACE FRET assay; format: biochemical; details: read-out: BACE1 FRET assay IC50
In short: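 Readout: dequenched fluorescence (ex 488 nm/[…]) after neutralizing with Tris buffer. Reactions, begun by adding 50 nM quenched peptide substrate spanning the BACE cleavage site, were incubated one hour at pH 4.2 in 0.05 M acetate with 100 uM genapol and 10% final DMSO.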

[2] = test system: Aβ40 in conditioned medium of cells stably expressing Amyloid Precursor Protein (APP); assay: In vitro BACE cell-based assay (HEK cell assay), Aβ40 sandwich ELISA; details: Homo sapiens, HEK293
In short: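 Aβ40 in conditioned medium was quantified by time-resolved fluorescence sandwich ELISA (pAb40 capture 3 h at 4 °C, biotin-6E10 detection 2 h at 4 °C) after 24 h compound exposure of APP-expressing cells. Doses spanned 10 points from 100 μM or 10 μM top, 0.1% DMSO; IC50 was derived from percent of control.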

Cathepsin D (Cat D) = biological target: T1, Cathepsin D (Cat D) (Homo sapiens, UniProt P07339); assay: In vitro enzymatic Cathepsin D (Cat D) FRET assay; format: biochemical; details: read-out: CatD IC50
T1 construct: Recombinant Cat D was expressed in CHO cells; made in house; host or cells: CHO cells
T1 sequence (P07339 65-412, species assumed): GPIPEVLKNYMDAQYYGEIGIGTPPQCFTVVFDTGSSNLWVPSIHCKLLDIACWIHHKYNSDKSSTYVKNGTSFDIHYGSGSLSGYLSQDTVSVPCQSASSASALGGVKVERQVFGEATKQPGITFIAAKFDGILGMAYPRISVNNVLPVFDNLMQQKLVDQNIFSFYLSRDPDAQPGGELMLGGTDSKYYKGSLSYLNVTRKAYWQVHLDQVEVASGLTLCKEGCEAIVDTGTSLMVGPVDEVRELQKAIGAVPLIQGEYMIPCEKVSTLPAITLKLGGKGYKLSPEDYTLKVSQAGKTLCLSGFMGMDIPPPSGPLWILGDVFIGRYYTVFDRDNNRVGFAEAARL
In short: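 FRET read-out: a fluorophore/quencher-labelled peptide substrate is cleaved by 9 nM Cat D (recombinant, CHO-expressed) following a one-hour preincubation with inhibitor dilutions in DMSO. Tris buffer added to neutralize pH ends the reaction before fluorescence measurement.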

Chain of Beta Secretase enzyme (BACE1) (P56817 46-501): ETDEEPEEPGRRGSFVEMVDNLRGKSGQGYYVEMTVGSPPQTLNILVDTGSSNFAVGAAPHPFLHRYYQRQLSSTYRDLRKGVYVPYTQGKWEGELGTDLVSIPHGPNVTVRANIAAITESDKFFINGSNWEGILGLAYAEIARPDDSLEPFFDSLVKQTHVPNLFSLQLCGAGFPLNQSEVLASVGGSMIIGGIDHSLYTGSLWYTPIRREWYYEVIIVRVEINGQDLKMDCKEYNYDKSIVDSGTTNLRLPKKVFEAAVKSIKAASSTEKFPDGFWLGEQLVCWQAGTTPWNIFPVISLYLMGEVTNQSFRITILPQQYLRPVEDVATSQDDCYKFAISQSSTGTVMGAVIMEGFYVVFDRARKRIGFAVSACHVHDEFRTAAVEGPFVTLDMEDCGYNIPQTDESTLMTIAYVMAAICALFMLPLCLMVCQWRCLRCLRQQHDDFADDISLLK

Row | Structure (SMILES) | pIC50 ([1]; average IC50, enzyme assay) | pIC50 ([2]; average IC50, cell assay) | pIC50 (Cathepsin D (Cat D)) | pIC50 ([1]; average IC50) | pIC50 ([2]; average IC50, HEK cells)
1 | CC1(C)C(N)=N[C@](CF)(c2cc(Nc3ncc(F)c4cc(O)cnc34)ccc2F)CS1(=O)=O [Example 433, 8-((3-((3S)-5-amino-3-(fluoromethyl)-6,6-dimethyl-1,1-dioxido-3,6-dihydro-2H-1,4-thiazin-3-yl)-4-fluorophenyl)amino)-5-fluoro-1,7-naphthyridin-3-ol] | 9.22 | 7.50 | 3.95 |  | 
2 | CC1(C)C(N)=N[C@](CF)(c2cc(Nc3ncc(F)c4cc(OCC5CCC5)cnc34)ccc2F)CS1(=O)=O [Example 434, N-(3-((3S)-5-amino-3-(fluoromethyl)-6,6-dimethyl-1,1-dioxido-3,6-dihydro-2H-1,4-thiazin-3-yl)-4-fluorophenyl)-3-(cyclobutylmethoxy)-5-fluoro-1,7-naphthyridin-8-amine] | 8.82 | 6.47 | 4.49 |  | 
3 | CCOc1cnc2c(Nc3ccc(F)c([C@]4(CF)CS(=O)(=O)C(C)(C)C(N)=N4)c3)ncc(F)c2c1 [Example 435, N-(3-((3S)-5-amino-3-(fluoromethyl)-6,6-dimethyl-1,1-dioxido-3,6-dihydro-2H-1,4-thiazin-3-yl)-4-fluorophenyl)-3-ethoxy-5-fluoro-1,7-naphthyridin-8-amine] | 8.80 | 7.31 | < 3.40 |  | 
4 | CC(C)COc1cnc2c(Nc3ccc(F)c([C@]4(CF)CS(=O)(=O)C(C)(C)C(N)=N4)c3)ncc(F)c2c1 [Example 436, N-(3-((3S)-5-amino-3-(fluoromethyl)-6,6-dimethyl-1,1-dioxido-3,6-dihydro-2H-1,4-thiazin-3-yl)-4-fluorophenyl)-5-fluoro-3-(2-methylpropoxy)-1,7-naphthyridin-8-amine] | 8.37 | 6.20 | 4.21 |  | 
5 | CC1(C)C(N)=N[C@](CF)(c2cc(Nc3ncc(F)c4cc(OCC(F)F)cnc34)ccc2F)CS1(=O)=O [Example 437, N-(3-((3S)-5-amino-3-(fluoromethyl)-6,6-dimethyl-1,1-dioxido-3,6-dihydro-2H-1,4-thiazin-3-yl)-4-fluorophenyl)-3-(2,2-difluoroethoxy)-5-fluoro-1,7-naphthyridin-8-amine] | 8.65 | 7.19 | < 5.78 |  | 
6 | CCOc1cnc2c(Nc3ccc(F)c([C@]4(CF)CS(=O)(=O)C5(CCC5)C(N)=N4)c3)ncc(F)c2c1 [Example 438, N-(3-((7S)-9-amino-7-(fluoromethyl)-5,5-dioxido-5-thia-8-azaspiro[3.5]non-8-en-7-yl)-4-fluorophenyl)-3-ethoxy-5-fluoro-1,7-naphthyridin-8-amine] | 8.42 | 6.70 | < 5.78 |  | 
7 | CC1(C)C(N)=N[C@](C)(c2cc(Sc3ncccc3F)ccc2F)CS1(=O)=O [Example 439, (5R)-5-(2-fluoro-5-((3-fluoro-2-pyridinyl)sulfanyl)phenyl)-2,2,5-trimethyl-5,6-dihydro-2H-1,4-thiazin-3-amine 1,1-dioxide] | 6.43 | 6.00 | 3.67 |  | 
8 | CC1(C)C(N)=N[C@](C)(c2cc(Sc3cc(C#N)ccn3)ccc2F)CS1(=O)=O [Example 440, 2-((3-((3R)-5-amino-3,6,6-trimethyl-1,1-dioxido-3,6-dihydro-2H-1,4-thiazin-3-yl)-4-fluorophenyl)sulfanyl)-4-pyridinecarbonitrile] | 6.25 | 6.17 | 3.66 |  | 
9 | CC1(C)C(N)=N[C@](C)(c2cc(Nc3nccc4nc(OCCF)cnc34)ccc2F)CS1(=O)=O [Example 441, N-(3-((3R)-5-amino-3,6,6-trimethyl-1,1-dioxido-3,6-dihydro-2H-1,4-thiazin-3-yl)-4-fluorophenyl)-2-(2-fluoroethoxy)pyrido[3,4-b]pyrazin-5-amine] | 8.27 | 7.86 | 3.39 |  | 
10 | CC1(C)C(N)=N[C@](C)(c2cc(Nc3nccc4nc(OCC(F)(F)F)cnc34)ccc2F)CS1(=O)=O [Example 442, N-(3-((3R)-5-amino-3,6,6-trimethyl-1,1-dioxido-3,6-dihydro-2H-1,4-thiazin-3-yl)-4-fluorophenyl)-2-(2,2,2-trifluoroethoxy)pyrido[3,4-b]pyrazin-5-amine] | 8.49 | 7.50 | 3.41 |  | 
11 | CC1(C)C(N)=N[C@](C)(c2cc(Nc3nccc4nc(OCC#N)cnc34)ccc2F)CS1(=O)=O [Example 443, ((5-((3-((3R)-5-amino-3,6,6-trimethyl-1,1-dioxido-3,6-dihydro-2H-1,4-thiazin-3-yl)-4-fluorophenyl)amino)pyrido[3,4-b]pyrazin-2-yl)oxy)acetonitrile] | 8.54 | 8.40 | 3.46 |  | 
12 | CC1(C)C(N)=N[C@](C)(c2cc(Nc3nccc4nc(OCC(F)F)cnc34)ccc2F)CS1(=O)=O [Example 444, N-(3-((3R)-5-amino-3,6,6-trimethyl-1,1-dioxido-3,6-dihydro-2H-1,4-thiazin-3-yl)-4-fluorophenyl)-2-(2,2-difluoroethoxy)pyrido[3,4-b]pyrazin-5-amine] | 8.34 | 8.08 | 3.62 |  | 
13 | CC#CCOc1cnc2c(Nc3ccc(F)c([C@]4(C)CS(=O)(=O)C(C)(C)C(N)=N4)c3)nccc2n1 [Example 445, N-(3-((3R)-5-amino-3,6,6-trimethyl-1,1-dioxido-3,6-dihydro-2H-1,4-thiazin-3-yl)-4-fluorophenyl)-2-(2-butyn-1-yloxy)pyrido[3,4-b]pyrazin-5-amine] | 9.49 | 9.70 | 3.75 |  | 
14 | CC1(C)C(N)=N[C@](C)(c2cc(Nc3cc(Cl)cc4cc(Cl)cnc34)ccc2F)CS1(=O)=O [Example 446, N-(3-((3R)-5-amino-3,6,6-trimethyl-1,1-dioxido-3,6-dihydro-2H-1,4-thiazin-3-yl)-4-fluorophenyl)-3,6-dichloro-8-quinolinamine] | 8.66 | 6.58 | 4.86 |  | 
15 | COc1cnc2c(Nc3ccc(F)c([C@]4(CF)CS(=O)(=O)C(C)(C)C(N)=N4)c3)nccc2n1 [Example 447, N-(3-((3S)-5-amino-3-(fluoromethyl)-6,6-dimethyl-1,1-dioxido-3,6-dihydro-2H-1,4-thiazin-3-yl)-4-fluorophenyl)-2-methoxypyrido[3,4-b]pyrazin-5-amine] | 9.06 | 7.85 | 2.95 |  | 
16 | CC1(C)C(N)=N[C@](CF)(c2cc(Nc3nccc4cc(Cl)cnc34)ccc2F)CS1(=O)=O [Example 448, N-(3-((3S)-5-amino-3-(fluoromethyl)-6,6-dimethyl-1,1-dioxido-3,6-dihydro-2H-1,4-thiazin-3-yl)-4-fluorophenyl)-3-chloro-1,7-naphthyridin-8-amine] | 9.43 | 7.55 | 4.23 |  | 
17 | CC1(C)C(N)=N[C@](CF)(c2cc(Nc3nncc4cc(Br)ccc34)ccc2F)CS1(=O)=O [Example 449, N-(3-((3S)-5-amino-3-(fluoromethyl)-6,6-dimethyl-1,1-dioxido-3,6-dihydro-2H-1,4-thiazin-3-yl)-4-fluorophenyl)-6-bromo-1-phthalazinamine] | 7.52 | 6.80 | 3.43 |  | 
18 | CC1(C)C(N)=N[C@](C)(c2cc(Nc3nncc4cc(Br)cnc34)ccc2F)CS1(=O)=O [Example 451, N-(3-((3R)-5-amino-3,6,6-trimethyl-1,1-dioxido-3,6-dihydro-2H-1,4-thiazin-3-yl)-4-fluorophenyl)-3-bromopyrido[2,3-d]pyridazin-8-amine] | 9.17 | 9.22 | 3.98 |  | 
19 | CC1(C)C(N)=N[C@](C)(c2cc(NC(=O)c3ccc(Cl)cn3)c[nH]c2=O)CS1(=O)=O [Example 452, N-(5-((3R)-5-amino-3,6,6-trimethyl-1,1-dioxido-3,6-dihydro-2H-1,4-thiazin-3-yl)-6-oxo-1,6-dihydro-3-pyridinyl)-5-chloro-2-pyridinecarboxamide] | 8.15 | 7.80 | 2.73 |  | 
20 | Cc1cc(OC(F)F)cnc1C(=O)Nc1cnc(F)c([C@]2(C)CS(=O)(=O)C3(CC3)C(N)=N2)c1 [Example 454, N-(5-((6R)-8-amino-6-methyl-4,4-dioxido-4-thia-7-azaspiro[2.5]oct-7-en-6-yl)-6-fluoro-3-pyridinyl)-5-(difluoromethoxy)-3-methyl-2-pyridinecarboxamide] |  |  | 3.97 | 8.51 | 8.41
21 | C[C@@]1(c2cc(Br)cnc2F)CS(=O)(=O)C2(CC2)C(N)=N1 [Example 455, (6R)-6-(5-bromo-2-fluoro-3-pyridinyl)-6-methyl-4-thia-7-azaspiro[2.5]oct-7-en-8-amine 4,4-dioxide] |  |  | 4.00 | 4.90 | < 4.81
22 | CC1(C)C(N)=N[C@](CF)(c2cc(N)ccc2F)CS1(=O)=O [Example 456, (5S)-5-(5-amino-2-fluorophenyl)-5-(fluoromethyl)-2,2-dimethyl-5,6-dihydro-2H-1,4-thiazin-3-amine 1,1-dioxide] |  |  | 3.64 | 5.60 | < 4.81
